Literature values in US11857510B2, “Methods and compositions for treating congenital diarrhea disorder” (NAPO PHARMACEUTICALS, INC., priority 2017, dated 2024).

Conditions: human, in vivo

For Crofelemer, the “absorption from the GI tract” value is given as “little or no absorption”, the systemic bioavailability is given as “virtually no systemic bioavailability” and the tolerability is given as “well tolerated”.
